Test results taken from PubChem BioAssay (NCI).
Several values for one entry are separate records, joined by “and”; a condition that tells them apart may be missing. Equal entries are not always repeated.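 Dose response: 5 concentrations. Exposure: 48 h. Format: 96-well plates. Endpoint: linear interpolation; highest concentration if not reached. Abbreviation: GI50, concentration required for 50% inhibition of growth. TGI: concentration producing complete growth inhibition.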

The molecules below were run on MCF7 breast (assay: DTP human tumour cell line panel, 48 h).

Row | SMILES | GI50 | TGI [µM]
1 | CN1CCc2c(Sc3ccc(C(=O)NO)cc3)c3ccccc3n2C1 | 2.7 µM | 13.6
2 | COc1ccc(CNc2c3ccccc3nc3ccccc23)cc1OC | 2.24 µM | 6.66
3 | CN(C)c1ccc2nc3ccc(=O)cc-3sc2c1 | 0.445 µM | 5.75
4 | O=C(Nc1ccc(Cl)cc1F)c1cc(Br)ccc1O | 1.26 µM | > 100
5 | COc1ccc(-n2cc(-c3ccc(Cl)c(Cl)c3)nc2SCc2cccc(C#N)c2)cc1 | 34.5 µM | > 100
6 | Fc1ccc(Nc2cc(-n3nnc4ccccc43)nc3ccccc23)cc1 | 29.8 µM | > 84.4
7 | NC(=O)C(=CNc1nc(-c2ccc(Cl)c(Cl)c2)cs1)C(N)=O | 80 µM | > 100
8 | NC(N)=N/N=C/c1cc(Cl)cc(Cl)c1O | – | > 100
9 | O=C(Nc1cccc(Cl)c1)c1cc2ccccc2cc1O | 2.66 µM and 2.12 µM | > 100
10 | CC(C)c1ccccc1S(=O)c1ccccc1C(C)(C)O (centres undefined) | – | > 100
11 | O=C(N/N=C\c1cc(Br)ccc1O)c1ccncc1 | 1.55 µM | 7.25
12 | COc1ccccc1/C=C/c1cnccn1 | – | > 10
13 | O=C(O)c1cccc(OCCO)c1 | – | > 100
14 | COc1ccc(C2C(C#N)=C(N)OC3=C2COc2ccc(F)cc23)cc1OC (centres undefined) | 32.9 µM | > 100
15 | CCOC(=O)C1=C(C)N(N)C(=S)NC1c1ccc(C)cc1 (centres undefined) | 16 µM | 73.6
16 | N#CC(C(=O)/C(=N/Nc1nc(=S)[nH]n1N)C(C#N)c1ccccc1)c1ccccc1 (centres undefined) | – | > 100
17 | CCCS(=O)(=O)Nc1ccc(Nc2c3ccccc3nc3ccccc23)c(OC)c1 | – | 16.3
18 | Cc1cc(NC(=O)c2ccc(C)c(Nc3nccc(-c4cccnc4)n3)c2)cc(-n2cnc(C)c2)c1 | 1.86 µM | 9.19
19 | O=C(O)c1ccccc1-c1ccccc1C(=O)Nc1ccc2c(c1)Cc1cc(F)ccc1-2 | – | 85.5
20 | CN(C)Cc1c[nH]c2c1C(=O)c1c(c(O)c3ccccc3c1O)C2=O | 3.22 µM | 15.5

Each molecule was assayed on SF-295 CNS (assay: DTP human tumour cell line panel, 48 h).

Row | SMILES | GI50 | TGI [µM]
21 | CN1CCc2c(Sc3ccc(C(=O)NO)cc3)c3ccccc3n2C1 | 2.13 µM | 4.84
22 | COc1ccc(CNc2c3ccccc3nc3ccccc23)cc1OC | 2.19 µM | 7.2
23 | CN(C)c1ccc2nc3ccc(=O)cc-3sc2c1 | 1.52 µM | 10.9
24 | O=C(Nc1ccc(Cl)cc1F)c1cc(Br)ccc1O | 1.65 µM | 3.51
25 | COc1ccc(-n2cc(-c3ccc(Cl)c(Cl)c3)nc2SCc2cccc(C#N)c2)cc1 | 22.2 µM | > 100
26 | Fc1ccc(Nc2cc(-n3nnc4ccccc43)nc3ccccc23)cc1 | 13.4 µM | 41.5
27 | NC(=O)C(=CNc1nc(-c2ccc(Cl)c(Cl)c2)cs1)C(N)=O | 37.1 µM | > 100
28 | NC(N)=N/N=C/c1cc(Cl)cc(Cl)c1O | – | > 100
29 | O=C(Nc1cccc(Cl)c1)c1cc2ccccc2cc1O | 4.11 µM and 13.1 µM | > 100
30 | CC(C)c1ccccc1S(=O)c1ccccc1C(C)(C)O (centres undefined) | – | 48.1
31 | O=C(N/N=C\c1cc(Br)ccc1O)c1ccncc1 | 3.47 µM | > 100
32 | COc1ccccc1/C=C/c1cnccn1 | – | > 10
33 | O=C(O)c1cccc(OCCO)c1 | – | > 100
34 | COc1ccc(C2C(C#N)=C(N)OC3=C2COc2ccc(F)cc23)cc1OC (centres undefined) | 27.5 µM | 67.5
35 | CCOC(=O)C1=C(C)N(N)C(=S)NC1c1ccc(C)cc1 (centres undefined) | 36.9 µM | > 100
36 | N#CC(C(=O)/C(=N/Nc1nc(=S)[nH]n1N)C(C#N)c1ccccc1)c1ccccc1 (centres undefined) | – | > 100
37 | CCCS(=O)(=O)Nc1ccc(Nc2c3ccccc3nc3ccccc23)c(OC)c1 | – | 8.31
38 | Cc1cc(NC(=O)c2ccc(C)c(Nc3nccc(-c4cccnc4)n3)c2)cc(-n2cnc(C)c2)c1 | 3.07 µM | 12.2
39 | O=C(O)c1ccccc1-c1ccccc1C(=O)Nc1ccc2c(c1)Cc1cc(F)ccc1-2 | – | 94.2
40 | CN(C)Cc1c[nH]c2c1C(=O)c1c(c(O)c3ccccc3c1O)C2=O | 3.22 µM | 17.1

The molecules below were run on LOX IMVI melanoma (assay: DTP human tumour cell line panel, 48 h).

Row | SMILES | GI50 | TGI [µM]
41 | CN1CCc2c(Sc3ccc(C(=O)NO)cc3)c3ccccc3n2C1 | 1.64 µM | 3.57
42 | COc1ccc(CNc2c3ccccc3nc3ccccc23)cc1OC | 1.4 µM | 3.47
43 | CN(C)c1ccc2nc3ccc(=O)cc-3sc2c1 | 0.633 µM | > 63.8
44 | O=C(Nc1ccc(Cl)cc1F)c1cc(Br)ccc1O | 0.769 µM | 4.92
45 | COc1ccc(-n2cc(-c3ccc(Cl)c(Cl)c3)nc2SCc2cccc(C#N)c2)cc1 | 13.9 µM | > 100
46 | Fc1ccc(Nc2cc(-n3nnc4ccccc43)nc3ccccc23)cc1 | 37.7 µM | > 100
47 | NC(=O)C(=CNc1nc(-c2ccc(Cl)c(Cl)c2)cs1)C(N)=O | > 100 µM | > 100
48 | NC(N)=N/N=C/c1cc(Cl)cc(Cl)c1O | – | > 100
49 | O=C(Nc1cccc(Cl)c1)c1cc2ccccc2cc1O | 3.73 µM and 1.75 µM | > 100
50 | CC(C)c1ccccc1S(=O)c1ccccc1C(C)(C)O (centres undefined) | – | > 100
51 | O=C(N/N=C\c1cc(Br)ccc1O)c1ccncc1 | 1.07 µM | 94.7
52 | COc1ccccc1/C=C/c1cnccn1 | – | > 10
53 | O=C(O)c1cccc(OCCO)c1 | – | > 100
54 | COc1ccc(C2C(C#N)=C(N)OC3=C2COc2ccc(F)cc23)cc1OC (centres undefined) | 11.3 µM | 24.1
55 | CCOC(=O)C1=C(C)N(N)C(=S)NC1c1ccc(C)cc1 (centres undefined) | 9.19 µM | > 100
56 | N#CC(C(=O)/C(=N/Nc1nc(=S)[nH]n1N)C(C#N)c1ccccc1)c1ccccc1 (centres undefined) | – | > 100
57 | CCCS(=O)(=O)Nc1ccc(Nc2c3ccccc3nc3ccccc23)c(OC)c1 | – | 4.9
58 | Cc1cc(NC(=O)c2ccc(C)c(Nc3nccc(-c4cccnc4)n3)c2)cc(-n2cnc(C)c2)c1 | 4.09 µM | 13
59 | O=C(O)c1ccccc1-c1ccccc1C(=O)Nc1ccc2c(c1)Cc1cc(F)ccc1-2 | – | 77.7
60 | CN(C)Cc1c[nH]c2c1C(=O)c1c(c(O)c3ccccc3c1O)C2=O | 6.32 µM | 19.5

Each molecule was assayed on A498 renal (assay: DTP human tumour cell line panel, 48 h).

Row | SMILES | GI50 | TGI
61 | CN1CCc2c(Sc3ccc(C(=O)NO)cc3)c3ccccc3n2C1 | 0.185 µM | 2.44 µM
62 | COc1ccc(CNc2c3ccccc3nc3ccccc23)cc1OC | 1.97 µM | 4.8 µM
63 | CN(C)c1ccc2nc3ccc(=O)cc-3sc2c1 | 11 µM | > 92.8 µM
64 | O=C(Nc1ccc(Cl)cc1F)c1cc(Br)ccc1O | 0.23 µM | 0.709 µM
65 | COc1ccc(-n2cc(-c3ccc(Cl)c(Cl)c3)nc2SCc2cccc(C#N)c2)cc1 | 12.6 µM | 44.5 µM
66 | Fc1ccc(Nc2cc(-n3nnc4ccccc43)nc3ccccc23)cc1 | 56.4 µM | > 100 µM
67 | NC(=O)C(=CNc1nc(-c2ccc(Cl)c(Cl)c2)cs1)C(N)=O | > 100 µM | > 100 µM
68 | NC(N)=N/N=C/c1cc(Cl)cc(Cl)c1O | – | > 100 µM
69 | O=C(Nc1cccc(Cl)c1)c1cc2ccccc2cc1O | 0.742 µM and 1.08 µM | 4.34 µM and 4.64 µM
70 | CC(C)c1ccccc1S(=O)c1ccccc1C(C)(C)O (centres undefined) | – | 40.8 µM
71 | O=C(N/N=C\c1cc(Br)ccc1O)c1ccncc1 | 5.82 µM | 77.3 µM
72 | COc1ccccc1/C=C/c1cnccn1 | – | > 10 µM
73 | O=C(O)c1cccc(OCCO)c1 | – | > 100 µM
74 | COc1ccc(C2C(C#N)=C(N)OC3=C2COc2ccc(F)cc23)cc1OC (centres undefined) | 28.3 µM | 59.1 µM
75 | CCOC(=O)C1=C(C)N(N)C(=S)NC1c1ccc(C)cc1 (centres undefined) | 11.2 µM | > 100 µM
76 | N#CC(C(=O)/C(=N/Nc1nc(=S)[nH]n1N)C(C#N)c1ccccc1)c1ccccc1 (centres undefined) | – | > 100 µM
77 | CCCS(=O)(=O)Nc1ccc(Nc2c3ccccc3nc3ccccc23)c(OC)c1 | – | 6 µM
78 | Cc1cc(NC(=O)c2ccc(C)c(Nc3nccc(-c4cccnc4)n3)c2)cc(-n2cnc(C)c2)c1 | 1.86 µM | 7.93 µM
79 | O=C(O)c1ccccc1-c1ccccc1C(=O)Nc1ccc2c(c1)Cc1cc(F)ccc1-2 | – | 46 µM
80 | CN(C)Cc1c[nH]c2c1C(=O)c1c(c(O)c3ccccc3c1O)C2=O | 12.1 µM | 25.3 µM

Each molecule was assayed on HOP-62 NSCLC (assay: DTP human tumour cell line panel, 48 h).

Row | SMILES | GI50 | TGI [µM]
81 | CN1CCc2c(Sc3ccc(C(=O)NO)cc3)c3ccccc3n2C1 | 1.97 µM | 6.12
82 | COc1ccc(CNc2c3ccccc3nc3ccccc23)cc1OC | 2.96 µM | 13.3
83 | CN(C)c1ccc2nc3ccc(=O)cc-3sc2c1 | 0.763 µM | > 56.9
84 | O=C(Nc1ccc(Cl)cc1F)c1cc(Br)ccc1O | 1.25 µM | 7.96
85 | COc1ccc(-n2cc(-c3ccc(Cl)c(Cl)c3)nc2SCc2cccc(C#N)c2)cc1 | 24.7 µM | > 100
86 | Fc1ccc(Nc2cc(-n3nnc4ccccc43)nc3ccccc23)cc1 | 13.8 µM | > 34
87 | NC(=O)C(=CNc1nc(-c2ccc(Cl)c(Cl)c2)cs1)C(N)=O | > 100 µM | > 100
88 | NC(N)=N/N=C/c1cc(Cl)cc(Cl)c1O | – | > 100
89 | O=C(Nc1cccc(Cl)c1)c1cc2ccccc2cc1O | 2.8 µM and 2.47 µM | –
90 | CC(C)c1ccccc1S(=O)c1ccccc1C(C)(C)O (centres undefined) | – | 48.7
91 | O=C(N/N=C\c1cc(Br)ccc1O)c1ccncc1 | 1.57 µM | 66.2
92 | COc1ccccc1/C=C/c1cnccn1 | – | > 10
93 | O=C(O)c1cccc(OCCO)c1 | – | > 100
94 | COc1ccc(C2C(C#N)=C(N)OC3=C2COc2ccc(F)cc23)cc1OC (centres undefined) | 27.9 µM | > 100
95 | CCOC(=O)C1=C(C)N(N)C(=S)NC1c1ccc(C)cc1 (centres undefined) | > 100 µM | > 100
96 | N#CC(C(=O)/C(=N/Nc1nc(=S)[nH]n1N)C(C#N)c1ccccc1)c1ccccc1 (centres undefined) | – | > 100
97 | CCCS(=O)(=O)Nc1ccc(Nc2c3ccccc3nc3ccccc23)c(OC)c1 | – | 5.72
98 | Cc1cc(NC(=O)c2ccc(C)c(Nc3nccc(-c4cccnc4)n3)c2)cc(-n2cnc(C)c2)c1 | 1.68 µM | 6.7
99 | O=C(O)c1ccccc1-c1ccccc1C(=O)Nc1ccc2c(c1)Cc1cc(F)ccc1-2 | – | 87.4
100 | CN(C)Cc1c[nH]c2c1C(=O)c1c(c(O)c3ccccc3c1O)C2=O | 10.7 µM | 27.9
